Measured values from patent US4559323A, “A41030 Antibiotics” (Eli Lilly and Company, priority 1984, dated 1985).
Like-named read-outs stand apart in the source and are kept apart here.

Experiments:
[1] = Electrometric titration (pKa); format: physicochemical; settings: electrometric titration in 66% dimethylformamide in water
Solubility in solvents = format: physicochemical; settings: solvents as named
Description: The seven antibiotic factors are recovered from the fermentation and are obtained as a mixture, the A41030 complex. It will be recognized that the ratio of the factors in the A41030 complex will vary, depending upon the fermentation conditions used. The individual factors […], and G are separated and isolated as individual compounds, as hereinafter described.

Hemophilus influenzae = assay: Agar-dilution MIC; format: cell-based; settings: Table 17, 24 hours
Streptococcus pyogenes = assay: Agar-dilution MIC; format: cell-based; settings: Table 17; 24 hours; Streptococcus pyogenes C203
Description: (§1) The agar-dilution procedure described by the International Collaborative study (ICS) group was used to determine the minimum inhibitory concentrations (MIC's).

Bacteroides fragilis = assay: Agar-dilution MIC (anaerobes); format: cell-based
Description: as §1

Bacteroides corrodens [2] = assay: Agar-dilution MIC (anaerobes); format: cell-based; settings: Table 12; 24-hour; B. corrodens 1874
Description: (§2) The A41030 antibiotics, factors A, B, and C, are active against a genus of anaerobic bacteria identified as Bacteroides sp., the 24-hour MIC values being determined by the agar-dilution method, and are set forth in Table 12, which follows.

Bacteroides vulgatis [3] = assay: Agar-dilution MIC (anaerobes); format: cell-based; settings: Table 12; 24-hour; B. vulgatis 1563
Description: as §2

Clostridium difficile = format: cell-based; settings: Table 16
Description: The A41030 antibiotic factors A, B, C, D, E, F, and G, are also active against a number of strains of Clostridium difficile, as determined by the agar-dilution method.

Clostridium septicum = assay: Agar-dilution MIC (anaerobes); format: cell-based; settings: Table 14; Clostridium septicum 1128
Peptococcus prevoti = assay: Agar-dilution MIC (anaerobes); format: cell-based
[4] = test system: Peptostreptococcus anaerobius; assay: Agar-dilution MIC (anaerobes); format: cell-based
[5] = test system: Peptostreptococcus intermedius; assay: Agar-dilution MIC (anaerobes); format: cell-based; settings: Table 15
[6] = test system: Bacteroides melaninogenicus; assay: Agar-dilution MIC (anaerobes); format: cell-based; settings: Table 14; Bacteroides melaninogenicus 2736
Fusobacterium symbiosum = assay: Agar-dilution MIC (anaerobes); format: cell-based; settings: Table 14; Fusobacterium symbiosum 1470
[7] = test system: Fusobacterium necrophorum; assay: Agar-dilution MIC (anaerobes); format: cell-based; settings: Table 14; Fusobacterium necrophorum 6054A
Pc. constellatus = assay: Agar-dilution MIC (anaerobes); format: cell-based, Peptococcus constellatus; settings: Table 15; Pc. constellatus 1468
Procedure: The MIC values were determined by the agar-dilution method, and are recorded in Table 15, which follows.

Salmonella typhi = assay: Agar-dilution MIC; format: cell-based; settings: Table 17, 24 hours
S. pneumoniae = assay: Experimental bacterial infection in mice, subcutaneous ED50; format: in vivo; settings: two doses subcutaneously
Procedure: (§3) All of the A41030 factors tested have shown in vivo antimicrobial activity against experimental bacterial infections. When two doses of test compound were administered subcutaneously to mice in illustrative infections, the activity observed is measured as an ED50 value [effective dose in mg./kg. to protect fifty percent of the test animals: See Warren Wick, et al., J. Bacteriol. 81, 233-235 (1961)].

S. pyogenes = assay: as above; format: in vivo; settings: two doses subcutaneously
Procedure: as §3

Staph. aureus = assay: as above; format: in vivo; settings: two doses subcutaneously
Procedure: as §3

Bacteroides corrodens [8] = assay: Agar-dilution MIC (anaerobes); format: cell-based; settings: Table 14; Bacteroides corrodens 1874
Bacteroides vulgatis [9] = assay: Agar-dilution MIC (anaerobes); format: cell-based; settings: Table 14; Bacteroides vulgatis 1211

For A41030 factor C, the “pKa, first titratable group” value [1] was “about 5.5”, the Solubility (Solubility in solvents) was “soluble in the same solvents as factor A” and the MIC (Hemophilus influenzae; Haemophilus influenzae 251) was 4 µg/mL. For the same substance, the MIC (Hemophilus influenzae; Haemophilus influenzae Brun) was 16 µg/mL, the MIC (Streptococcus pyogenes) was 1 µg/mL and the MIC (Bacteroides fragilis; Table 12, 24-hour, B. fragilis 2) was 32 µg/mL. For the same substance, the MIC (Bacteroides fragilis; Table 12, 24-hour, B. fragilis 9) was 32 µg/mL, the MIC (Bacteroides fragilis; Table 12, 24-hour, B. fragilis 103) was 32 µg/mL and the MIC (Bacteroides fragilis; Table 12, 24-hour, B. fragilis 104) was 32 µg/mL. It also gave an MIC (Bacteroides fragilis; Table 12, 24-hour, B. fragilis 106) of 32 µg/mL, an MIC (Bacteroides fragilis; Table 12, 24-hour, B. fragilis 107) of 32 µg/mL and an MIC (Bacteroides fragilis; Table 12, 24-hour, B. fragilis 108) of 64 µg/mL. For the same substance, the MIC (Bacteroides fragilis; Table 12, 24-hour, B. fragilis 110) was 64 µg/mL, the MIC (Bacteroides fragilis; Table 12, 24-hour, B. fragilis 111) was 32 µg/mL and the MIC (Bacteroides fragilis; Table 12, 24-hour, B. fragilis 112) was 32 µg/mL. For the same substance, the MIC (Bacteroides fragilis; Table 12, 24-hour, B. fragilis 113) was 32 µg/mL, the MIC (Bacteroides fragilis; Table 12, 24-hour, B. fragilis 1451) was 64 µg/mL and the MIC (Bacteroides fragilis; Table 12, 24-hour, B. fragilis 1470) was 64 µg/mL. The MIC (Bacteroides fragilis; Table 12, 24-hour, B. fragilis 1877) was 32 µg/mL, the MIC (Bacteroides fragilis; Table 12, 24-hour, B. fragilis 9032) was 32 µg/mL and the MIC (Bacteroides fragilis; Table 14, Bacteroides fragilis 1877) was 16 µg/mL. The MIC (Bacteroides fragilis; Table 14, Bacteroides fragilis 1936B) was 32 µg/mL, the MIC (Bacteroides corrodens [2]) was 32 µg/mL and the MIC (Bacteroides vulgatis [3]) was 32 µg/mL. It also gave an MIC (Clostridium difficile; C. difficile 78) of 1.0 µg/mL, an MIC (Clostridium difficile; C. difficile 107B) of 1.0 µg/mL and an MIC (Clostridium difficile; C. difficile 111F) of 2 µg/mL. For the same substance, the MIC (Clostridium difficile; C. difficile 1153) was 2 µg/mL, the MIC (Clostridium difficile; C. difficile 2634) was 2 µg/mL and the MIC (Clostridium difficile; C. difficile 3424-5B) was 1.0 µg/mL. For the same substance, the MIC (Clostridium difficile; C. difficile 3816) was 2 µg/mL, the MIC (Clostridium difficile; C. difficile 3950) was 2 µg/mL and the MIC (Clostridium difficile; C. difficile 6890) was 2 µg/mL. For the same substance, the MIC (Clostridium difficile; C. difficile 8484) was 1.0 µg/mL, the MIC (Clostridium difficile; C. difficile A-194) was 2 µg/mL and the MIC (Clostridium difficile; C. difficile A-195) was 1.0 µg/mL. It also gave an MIC (Clostridium difficile; C. difficile A-196) of 2 µg/mL, an MIC (Clostridium difficile; C. difficile A-279) of 2 µg/mL and an MIC (Clostridium difficile; C. difficile A-280) of 1.0 µg/mL. The MIC (Clostridium difficile; C. difficile A-281) was 2 µg/mL, the MIC (Clostridium difficile; C. difficile WAL-2112) was 2 µg/mL and the MIC (Clostridium difficile; C. difficile WAL-3657) was 2 µg/mL. The MIC (Clostridium difficile; C. difficile WAL-4268) was 1.0 µg/mL, the MIC (Clostridium septicum) was 8 µg/mL and the MIC (Peptococcus prevoti; Table 14, Peptococcus prevoti 1281) was at most 0.25 µg/mL. For the same substance, the MIC (Peptococcus prevoti; Table 15, Pc. prevoti 1281) was 1.0 µg/mL, the MIC (Peptococcus prevoti; Table 15, Pc. prevoti 1293) was 0.5 µg/mL and the MIC (Peptococcus prevoti; Table 15, Pc. prevoti 1407) was 1.0 µg/mL. It also gave an MIC ([4]; Table 14, Peptostreptococcus anaerobius 1428) of at most 0.25 µg/mL, an MIC ([4]; Table 15, Ps. anaerobius 52) of 0.25 µg/mL and an MIC ([4]; Table 15, Ps. anaerobius 59) of 0.25 µg/mL. For the same substance, the MIC ([4]; Table 15, Ps. anaerobius 1418) was at most 0.03 µg/mL, the MIC ([4]; Table 15, Ps. anaerobius 1428) was 0.25 µg/mL and the MIC ([4]; Table 15, Ps. anaerobius 1451) was 0.25 µg/mL. For the same substance, the MIC ([4]; Table 15, Ps. anaerobius 1477) was 0.25 µg/mL, the MIC ([5]; Ps. intermedius 1264) was at most 0.03 µg/mL and the MIC ([5]; Ps. intermedius 1624) was 1.0 µg/mL. It also gave an MIC [6] of 4 µg/mL, an MIC (Fusobacterium symbiosum) of 1.0 µg/mL and an MIC [7] of 16 µg/mL. For the same substance, the MIC (Pc. constellatus) was 0.5 µg/mL, the MIC (Salmonella typhi; Salmonella typhi 1335) was over 128 µg/mL and the MIC (Salmonella typhi; Salmonella typhi X514) was over 128 µg/mL. For the same substance, the ED50 (S. pneumoniae) was 6.7 mg/kg, the ED50 (S. pyogenes) was 10.4 mg/kg and the ED50 (Staph. aureus) was under 0.43 mg/kg. The MIC (Bacteroides corrodens [8]) was 32 µg/mL and the MIC (Bacteroides vulgatis [9]) was 32 µg/mL.
